Measurements taken from ChEMBL document CHEMBL1201862, “PubChem BioAssay data set” (2004).
Calls of active or inactive are those of the source.

What was measured:
[1] = target: T1, Protein RecA (Mycobacterium tuberculosis, UniProt P9WHJ3); assay: Fluorescence Cell-Free Homogeneous Dose Retest to Identify Inhibitors of RecA-Intein Splicing Activity. [Related pubchem assays (depositor defined):AID2097, AID2223, AID489010, AID492950]; type: functional
T1 sequence (P9WHJ3 whole entry): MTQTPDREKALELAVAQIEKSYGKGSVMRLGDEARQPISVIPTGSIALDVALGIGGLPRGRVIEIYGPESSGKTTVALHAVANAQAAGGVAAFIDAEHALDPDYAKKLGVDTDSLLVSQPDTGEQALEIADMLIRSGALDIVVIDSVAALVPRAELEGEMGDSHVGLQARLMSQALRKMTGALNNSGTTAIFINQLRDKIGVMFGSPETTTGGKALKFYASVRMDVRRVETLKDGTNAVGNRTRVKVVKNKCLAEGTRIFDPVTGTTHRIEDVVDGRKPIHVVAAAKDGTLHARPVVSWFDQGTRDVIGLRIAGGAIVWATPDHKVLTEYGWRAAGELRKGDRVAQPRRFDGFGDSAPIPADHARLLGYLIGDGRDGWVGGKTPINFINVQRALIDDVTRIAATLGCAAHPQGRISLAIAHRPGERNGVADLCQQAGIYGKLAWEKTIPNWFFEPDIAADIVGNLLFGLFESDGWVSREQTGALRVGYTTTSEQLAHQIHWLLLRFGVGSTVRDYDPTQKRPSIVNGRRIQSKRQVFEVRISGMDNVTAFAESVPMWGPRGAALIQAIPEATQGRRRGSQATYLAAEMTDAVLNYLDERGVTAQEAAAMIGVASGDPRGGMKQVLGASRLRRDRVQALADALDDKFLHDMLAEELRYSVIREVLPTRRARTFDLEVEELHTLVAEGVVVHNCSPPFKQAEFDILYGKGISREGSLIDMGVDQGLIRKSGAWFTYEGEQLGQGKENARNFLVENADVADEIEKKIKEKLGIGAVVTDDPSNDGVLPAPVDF

[2] = target: T2, Lysine-specific demethylase 4C (Homo sapiens, UniProt Q9H3R0); assay: inhibition of JMJD2C H3K9me3 demethylation – biochemical, DELFIA europium, cherry-picked samples, dose response (AID 488835); type: functional
T2 sequence (Q9H3R0 whole entry): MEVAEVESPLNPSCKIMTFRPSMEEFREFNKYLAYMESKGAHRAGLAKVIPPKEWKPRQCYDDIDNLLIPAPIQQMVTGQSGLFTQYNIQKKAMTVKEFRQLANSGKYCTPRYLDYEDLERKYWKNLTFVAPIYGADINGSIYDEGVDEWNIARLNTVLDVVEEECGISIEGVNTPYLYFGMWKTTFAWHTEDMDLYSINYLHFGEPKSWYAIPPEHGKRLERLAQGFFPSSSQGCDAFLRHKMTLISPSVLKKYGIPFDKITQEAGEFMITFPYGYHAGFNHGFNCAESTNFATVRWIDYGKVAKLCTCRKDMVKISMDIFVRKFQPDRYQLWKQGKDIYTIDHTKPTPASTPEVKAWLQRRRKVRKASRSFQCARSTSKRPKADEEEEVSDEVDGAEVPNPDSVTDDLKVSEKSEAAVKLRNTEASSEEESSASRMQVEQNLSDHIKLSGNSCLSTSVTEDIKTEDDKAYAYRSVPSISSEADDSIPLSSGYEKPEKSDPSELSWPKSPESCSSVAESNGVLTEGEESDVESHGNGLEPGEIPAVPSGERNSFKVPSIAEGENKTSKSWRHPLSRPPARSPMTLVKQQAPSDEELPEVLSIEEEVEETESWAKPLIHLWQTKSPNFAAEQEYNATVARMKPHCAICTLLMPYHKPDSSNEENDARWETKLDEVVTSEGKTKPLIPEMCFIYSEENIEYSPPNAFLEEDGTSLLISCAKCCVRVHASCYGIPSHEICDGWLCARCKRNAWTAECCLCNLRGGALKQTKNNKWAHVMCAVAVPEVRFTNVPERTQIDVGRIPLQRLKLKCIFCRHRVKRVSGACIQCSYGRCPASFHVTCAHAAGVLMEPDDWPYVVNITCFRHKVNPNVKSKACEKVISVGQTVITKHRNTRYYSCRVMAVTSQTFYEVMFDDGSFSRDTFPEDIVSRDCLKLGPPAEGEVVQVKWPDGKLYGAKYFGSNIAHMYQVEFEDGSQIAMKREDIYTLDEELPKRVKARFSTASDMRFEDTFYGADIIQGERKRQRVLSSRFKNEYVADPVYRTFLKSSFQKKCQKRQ

[3] = target: Genome polyprotein (dengue virus type 2, UniProt P29990); assay: flavivirus cap methylation enzyme inhibition – biochemical, confirmation dose response, primary screen (AID 588689); type: functional
Chain of Genome polyprotein (P29990 2492-3391 limits assumed): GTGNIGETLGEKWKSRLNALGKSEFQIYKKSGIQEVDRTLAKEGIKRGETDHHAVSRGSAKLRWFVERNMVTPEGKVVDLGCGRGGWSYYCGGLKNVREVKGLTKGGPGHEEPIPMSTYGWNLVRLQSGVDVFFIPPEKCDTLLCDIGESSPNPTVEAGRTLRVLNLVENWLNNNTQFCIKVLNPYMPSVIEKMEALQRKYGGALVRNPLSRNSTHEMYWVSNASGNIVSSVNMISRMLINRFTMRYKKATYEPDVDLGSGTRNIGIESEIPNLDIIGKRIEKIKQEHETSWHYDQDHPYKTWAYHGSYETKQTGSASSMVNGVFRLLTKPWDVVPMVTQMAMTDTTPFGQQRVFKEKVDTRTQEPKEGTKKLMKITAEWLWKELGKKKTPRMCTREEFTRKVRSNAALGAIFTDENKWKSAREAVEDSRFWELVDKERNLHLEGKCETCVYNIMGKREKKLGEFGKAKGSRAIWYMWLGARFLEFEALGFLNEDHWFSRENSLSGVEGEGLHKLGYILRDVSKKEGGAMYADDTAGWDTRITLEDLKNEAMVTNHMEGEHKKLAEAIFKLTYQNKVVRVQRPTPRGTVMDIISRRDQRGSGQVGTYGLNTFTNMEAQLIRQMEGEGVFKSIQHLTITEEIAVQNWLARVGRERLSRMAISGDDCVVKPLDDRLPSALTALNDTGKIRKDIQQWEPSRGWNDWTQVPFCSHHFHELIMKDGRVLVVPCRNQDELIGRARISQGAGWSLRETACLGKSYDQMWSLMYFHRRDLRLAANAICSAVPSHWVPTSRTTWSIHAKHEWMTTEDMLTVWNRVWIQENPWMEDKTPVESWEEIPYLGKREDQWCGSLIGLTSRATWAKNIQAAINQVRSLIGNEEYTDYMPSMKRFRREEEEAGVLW

[4] = target: T3, Replicative DNA helicase DnaB (Mycobacterium tuberculosis, UniProt P9WMR3); assay: DnaB intein splicing inhibitors, dose response, biochemical, cell-free fluorescence (AID 449749); type: functional
T3 sequence (P9WMR3 whole entry): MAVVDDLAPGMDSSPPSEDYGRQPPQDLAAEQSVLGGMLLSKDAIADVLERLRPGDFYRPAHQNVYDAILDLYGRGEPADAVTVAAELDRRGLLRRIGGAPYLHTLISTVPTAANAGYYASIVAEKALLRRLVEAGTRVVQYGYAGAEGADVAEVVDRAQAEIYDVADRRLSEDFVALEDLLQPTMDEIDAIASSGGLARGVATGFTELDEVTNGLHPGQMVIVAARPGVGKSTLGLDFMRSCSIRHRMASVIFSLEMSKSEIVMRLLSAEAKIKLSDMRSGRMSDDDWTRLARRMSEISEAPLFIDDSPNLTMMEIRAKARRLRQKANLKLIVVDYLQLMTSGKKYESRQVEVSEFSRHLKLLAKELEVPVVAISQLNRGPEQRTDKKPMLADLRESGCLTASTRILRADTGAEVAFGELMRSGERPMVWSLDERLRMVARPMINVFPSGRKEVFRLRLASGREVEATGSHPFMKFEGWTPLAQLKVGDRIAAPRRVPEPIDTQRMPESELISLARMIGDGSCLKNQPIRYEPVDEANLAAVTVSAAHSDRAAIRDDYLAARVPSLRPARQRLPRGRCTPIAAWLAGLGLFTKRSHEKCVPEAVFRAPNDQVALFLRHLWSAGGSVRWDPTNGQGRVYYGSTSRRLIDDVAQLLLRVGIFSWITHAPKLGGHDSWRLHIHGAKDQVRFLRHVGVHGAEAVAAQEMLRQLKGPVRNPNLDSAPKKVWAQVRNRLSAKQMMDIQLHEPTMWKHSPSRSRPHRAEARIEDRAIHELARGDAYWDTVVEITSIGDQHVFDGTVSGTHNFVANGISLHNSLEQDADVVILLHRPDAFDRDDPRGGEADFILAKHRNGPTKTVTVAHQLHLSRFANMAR

[5] = Trypanosoma cruzi growth suppression in host cells – NIH3T3 host cells, beta-gal luminescence, confirmation (AID 2044); type: functional, cell-based;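 note: intracellular parasites grown in NIH/3T3 mouse fibroblasts as host cells; luminescent beta-galactosidase reporter signal from transgenic T. cruzi replicating inside host cells; inhibitors lower the luminescence signal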
[6] = viability loss of HPDE-C7K cells – cell-based, fluorescence, HTS, primary screen (AID 431); type: functional; details: Homo sapiens
[7] = HPDE-C7 pancreatic duct cell viability loss – fluorescence, HTS (AID 430); type: functional, cell-based; details: Homo sapiens
[8] = viability of PTEN-deleted HCT116 cells – cell-based, HCT116 PTEN knockout, dose response (AID 1047); type: functional;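 note: HCT116 colon tumor cells with PTEN knocked out; cells exposed to compound for 60 hours before readout; potency for loss of cell viability measured by luminescence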
[9] = decrease of insulin promoter-GFP reporter – imaging, high-content screening, mouse beta cells (AID 1628); type: functional; details: MIN6
[10] = NIH3T3 cell viability loss – ATP luminescence, mouse fibroblasts, counter-screen, dose response (AID 2010); type: functional, cell-based;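 note: cells exposed to compound for about 90 hours before reading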
[11] = viability of HCT116 lacking mutant beta-catenin – cell-based, human colon tumor, dose response (AID 1045); type: functional;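 note: HCT116 colon tumor cells with beta catenin knocked out; cells exposed to compound for 60 hours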
[12] = MIN6 cell viability loss – mouse insulinoma, cytotoxicity control, dose response (AID 2122); type: functional;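 note: confirmatory high-throughput counterscreen run to flag cytotoxic compounds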
[13] = system: Vero; assay: cells; type: functional, cell-based; details: Chlorocebus sabaeus
[14] = system: Vero; assay: cells; type: functional; details: Chlorocebus sabaeus
[15] = HepG2 cell cytotoxicity, dose response, cytotoxicity control for non-replicating M. tuberculosis project (AID 489018); type: functional; details: Mycobacterium tuberculosis
[16] = cells; type: functional
[17] = Vero E6 cell cytotoxicity, dose response, cytotoxicity control for non-replicating M. tuberculosis project, secondary assay (AID 492998); type: functional, VeroE6; details: Vero C1008
[18] = THP-1 cell cytotoxicity, dose response, cytotoxicity control for non-replicating M. tuberculosis project (AID 489025); type: functional
[19] = target: T4, Cytochrome P450 2C9 (Homo sapiens, UniProt P11712)
T4 sequence (P11712 whole entry): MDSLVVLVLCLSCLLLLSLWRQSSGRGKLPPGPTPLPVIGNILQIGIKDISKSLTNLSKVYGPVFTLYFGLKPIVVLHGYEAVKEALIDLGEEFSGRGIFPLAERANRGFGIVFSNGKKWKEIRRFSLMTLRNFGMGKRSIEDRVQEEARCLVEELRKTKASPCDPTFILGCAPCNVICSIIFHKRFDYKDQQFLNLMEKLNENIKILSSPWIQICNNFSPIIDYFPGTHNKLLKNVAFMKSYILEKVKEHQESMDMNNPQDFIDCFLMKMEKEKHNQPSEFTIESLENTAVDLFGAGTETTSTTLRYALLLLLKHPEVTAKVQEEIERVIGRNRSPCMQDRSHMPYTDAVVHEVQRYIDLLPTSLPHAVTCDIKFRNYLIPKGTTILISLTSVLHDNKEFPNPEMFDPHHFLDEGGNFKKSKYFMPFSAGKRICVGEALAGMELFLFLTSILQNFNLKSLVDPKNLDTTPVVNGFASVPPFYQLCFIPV

[20] = target: T5, High affinity choline transporter 1 (Homo sapiens, UniProt Q9GZV3); assay: human choline transporter blockers, potency – cell-based, 5-point CRC, membrane potential dye, dose response (AID 504840); type: functional
T5 sequence (Q9GZV3 whole entry): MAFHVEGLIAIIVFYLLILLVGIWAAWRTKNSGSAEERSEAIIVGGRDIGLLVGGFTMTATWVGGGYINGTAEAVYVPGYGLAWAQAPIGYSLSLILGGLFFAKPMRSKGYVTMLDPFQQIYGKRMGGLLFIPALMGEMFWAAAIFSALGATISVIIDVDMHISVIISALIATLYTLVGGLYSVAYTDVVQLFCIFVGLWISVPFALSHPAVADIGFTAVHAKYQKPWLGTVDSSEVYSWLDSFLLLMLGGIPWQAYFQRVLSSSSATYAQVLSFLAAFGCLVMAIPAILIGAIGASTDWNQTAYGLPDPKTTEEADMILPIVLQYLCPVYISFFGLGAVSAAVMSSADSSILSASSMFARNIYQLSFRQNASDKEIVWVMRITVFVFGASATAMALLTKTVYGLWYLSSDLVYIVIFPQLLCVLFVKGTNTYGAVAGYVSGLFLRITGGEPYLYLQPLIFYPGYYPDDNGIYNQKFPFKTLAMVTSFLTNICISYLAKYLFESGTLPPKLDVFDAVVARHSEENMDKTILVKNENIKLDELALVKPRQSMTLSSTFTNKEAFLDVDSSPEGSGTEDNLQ

[21] = target: T6, Heat shock factor protein 1 (Mus musculus, UniProt P38532); assay: enhancement of HSF1-driven luciferase signal – cell-based, NIH3T3, luminescence, dose retest, confirmation (AID 435004); type: functional;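 note: stress induced by proteasome inhibitor MG132 added 30 min after compound; luciferase reporter driven by HSF1 response element in NIH3T3 cells; actives raise luminescence as potentiators of the MG132 stress response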
T6 sequence (P38532 whole entry): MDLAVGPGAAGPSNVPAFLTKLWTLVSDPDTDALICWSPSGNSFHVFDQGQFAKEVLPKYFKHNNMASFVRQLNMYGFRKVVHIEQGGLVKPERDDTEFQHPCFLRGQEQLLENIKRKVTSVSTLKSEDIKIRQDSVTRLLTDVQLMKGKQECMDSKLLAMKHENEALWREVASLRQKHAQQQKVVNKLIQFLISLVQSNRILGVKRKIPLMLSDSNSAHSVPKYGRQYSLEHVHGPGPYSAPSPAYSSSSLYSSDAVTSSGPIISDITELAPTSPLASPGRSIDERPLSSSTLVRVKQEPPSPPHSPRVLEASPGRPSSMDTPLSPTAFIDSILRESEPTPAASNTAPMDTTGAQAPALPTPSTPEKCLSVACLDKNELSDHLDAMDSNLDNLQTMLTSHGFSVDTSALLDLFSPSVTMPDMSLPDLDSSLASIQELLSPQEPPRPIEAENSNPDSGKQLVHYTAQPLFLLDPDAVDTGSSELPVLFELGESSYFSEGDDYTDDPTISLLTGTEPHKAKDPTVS

[22] = target: T5, High affinity choline transporter 1; assay: human choline transporter blockers, potency – cell-based, 10-point CRC, membrane potential dye, dose response (AID 588401); type: functional;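 note: membrane potential dye fluorescence of choline-evoked depolarization via CHT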
[23] = target: T4, Cytochrome P450 2C9; remark: listed apart in the source
[24] = target: Eukaryotic translation initiation factor 4E (Mus musculus, UniProt P63073); assay: blockers of eIF4G binding by eIF4E – biochemical, TR-FRET, dose response (AID 855); type: functional;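 note: potency for disrupting eIF4E binding to eIF4GI seen as loss of FRET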
Chain of Eukaryotic translation initiation factor 4E (P63073 whole entry): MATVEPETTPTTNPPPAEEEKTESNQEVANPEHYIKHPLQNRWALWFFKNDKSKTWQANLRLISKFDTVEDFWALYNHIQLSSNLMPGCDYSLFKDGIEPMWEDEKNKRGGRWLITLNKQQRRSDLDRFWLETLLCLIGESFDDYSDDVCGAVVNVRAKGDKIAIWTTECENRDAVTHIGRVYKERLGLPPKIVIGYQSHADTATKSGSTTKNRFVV

CC1=NN(c2ccc(C)cc2C)C(=O)C1C(c1ccccc1)C1C(=O)N(c2ccc(C)cc2C)N=C1C (configuration not stated)
EC50 [1]: 0.431 µM (active) | AC50 [2]: 16.3 µM (active) | IC50 [3]: 48.8 µM (active) | AC50 [4]: 0.523 µM (active)

N=c1c2c(-c3ccccc3)c(-c3ccccc3)n(Cc3ccco3)c2ncn1Cc1ccco1
EC50 [1]: 8.76 µM (active) | EC50 [5]: 680 nM (active) | EC50 [6]: 11.9 µM (active) | EC50 [7]: 7.73 µM (active) | EC50 [8]: 1.16 µM (active) | IC50 [9]: 1.72 µM (active) | EC50 [10]: 13.5 µM (active) | EC50 [11]: 0.891 µM (active) | IC50 [12]: 2.49 µM (active) | AC50 [4]: 6.15 µM (active)

CCOc1ccc(/C=C/c2nc(C#N)c(NCCCN(C)C)o2)cc1
IC50 [13]: 21.1 µM (active) | CC50 [14]: > 25 µM (active)

CCOc1cc(CNCCO)cc(Br)c1OCc1ccccc1Cl
CC50 [15]: 14.1 µM (active) | IC50 [16]: 18.4 µM (active) | EC50 [8]: 9.8 µM (active) | IC50 [9]: 1.43 µM (active) | CC50 [17]: 19.7 µM (active) | CC50 [14]: 13.8 µM (active) | EC50 [11]: 9.13 µM (active) | IC50 [12]: 1.56 µM (active) | CC50 [18]: 11.5 µM (active) | AC50 [19]: 28.2 µM (inconclusive)

CCC(NC(C)c1ccccc1)=C1C(=O)N(C)C(=O)N(C)C1=O (configuration not stated)
EC50 [8]: 47.9 µM (active) | IC50 [9]: 2.84 µM (active) | IC50 [20]: 9.12 µM (active) | EC50 [11]: 50 µM (active) | IC50 [12]: 2.81 µM (active) | EC50 [21]: > 260 µM (inactive) | IC50 [22]: 8.43 µM (active)

COc1ccccc1/C=C/C(=O)c1c(O)nc(C)c2c1CCCC2
IC50 [13]: 20.3 µM (active) | AC50 [23]: inconclusive | IC50 [24]: 50 µM (inactive) | CC50 [14]: > 25 µM (active)
